Measured values reported in ChEMBL document CHEMBL4507265 (2021).

What was measured:
[1] = test system: Tyrosine-protein kinase ABL1 (Homo sapiens), P00519 [Y253F]; conditions: Compound concentration 1000.0 nM
[2] = biological target: RAC-beta serine/threonine-protein kinase (Homo sapiens) (UniProt P31751); conditions: Compound concentration 1000.0 nM
[3] = test system: ALK tyrosine kinase receptor (Homo sapiens), Q9UM73 [L1196M]; conditions: Compound concentration 1000.0 nM
[4] = biological target: Serine/threonine-protein kinase B-raf (Homo sapiens) (UniProt P15056); conditions: Compound concentration 1000.0 nM
[5] = biological target: Serine/threonine-protein kinase BRSK2 (Homo sapiens) (UniProt Q8IWQ3); conditions: Compound concentration 1000.0 nM
[6] = biological target: Calcium/calmodulin-dependent protein kinase kinase 1 (Homo sapiens) (UniProt Q8N5S9); conditions: Compound concentration 1000.0 nM
[7] = biological target: Cyclin-dependent kinase 11B (Homo sapiens) (UniProt P21127); conditions: Compound concentration 1000.0 nM
[8] = biological target: Cyclin-dependent kinase 11A (Homo sapiens) (UniProt Q9UQ88); conditions: Compound concentration 1000.0 nM
[9] = biological target: Cyclin-dependent kinase 7 (Homo sapiens) (UniProt P50613); conditions: Compound concentration 1000.0 nM
[10] = biological target: Casein kinase I isoform gamma-1 (Homo sapiens) (UniProt Q9HCP0); conditions: Compound concentration 1000.0 nM
[11] = biological target: Casein kinase I isoform gamma-3 (Homo sapiens) (UniProt Q9Y6M4); conditions: Compound concentration 1000.0 nM
[12] = biological target: Casein kinase II subunit alpha' (Homo sapiens) (UniProt P19784); conditions: Compound concentration 1000.0 nM
[13] = biological target: Ephrin type-A receptor 7 (Homo sapiens) (UniProt Q15375); conditions: Compound concentration 1000.0 nM
[14] = biological target: Receptor tyrosine-protein kinase erbB-3 (Homo sapiens) (UniProt P21860); conditions: Compound concentration 1000.0 nM
[15] = biological target: Focal adhesion kinase 1 (Homo sapiens) (UniProt Q05397); conditions: Compound concentration 1000.0 nM
[16] = biological target: Tyrosine-protein kinase FRK (Homo sapiens) (UniProt P42685); conditions: Compound concentration 1000.0 nM
[17] = biological target: Beta-adrenergic receptor kinase 1 (Homo sapiens) (UniProt P25098); conditions: Compound concentration 1000.0 nM
[18] = biological target: Homeodomain-interacting protein kinase 1 (Homo sapiens) (UniProt Q86Z02); conditions: Compound concentration 1000.0 nM
[19] = biological target: Serine/threonine-protein kinase ICK (Homo sapiens) (UniProt Q9UPZ9); conditions: Compound concentration 1000.0 nM
[20] = biological target: Insulin receptor (Homo sapiens) (UniProt P06213); conditions: Compound concentration 1000.0 nM
[21] = biological target: Interleukin-1 receptor-associated kinase 1 (Homo sapiens) (UniProt P51617); conditions: Compound concentration 1000.0 nM
[22] = test system: Mast/stem cell growth factor receptor Kit (Homo sapiens), P10721 [D816H]; conditions: Compound concentration 1000.0 nM
[23] = biological target: Serine/threonine-protein kinase STK11 (Homo sapiens) (UniProt Q15831); conditions: Compound concentration 1000.0 nM
[24] = test system: Leucine-rich repeat serine/threonine-protein kinase 2 (Homo sapiens), Q5S007 [G2019S]; conditions: Compound concentration 1000.0 nM
[25] = biological target: Tyrosine-protein kinase Lyn (Homo sapiens) (UniProt P07948); conditions: Compound concentration 1000.0 nM
[26] = biological target: Dual specificity mitogen-activated protein kinase kinase 1 (Homo sapiens) (UniProt Q02750); conditions: Compound concentration 1000.0 nM
[27] = biological target: Serine/threonine-protein kinase NLK (Homo sapiens) (UniProt Q9UBE8); conditions: Compound concentration 1000.0 nM
[28] = biological target: Mitogen-activated protein kinase 14 (Homo sapiens) (UniProt Q16539); conditions: Compound concentration 1000.0 nM
[29] = biological target: Phosphatidylinositol 3-kinase C2 domain-containing subunit gamma (Homo sapiens) (UniProt O75747); conditions: Compound concentration 1000.0 nM
[30] = test system: Phosphatidylinositol 4,5-bisphosphate 3-kinase catalytic subunit alpha isoform (Homo sapiens), P42336 [E542K]; conditions: Compound concentration 1000.0 nM
[31] = test system: Phosphatidylinositol 4,5-bisphosphate 3-kinase catalytic subunit alpha isoform (Homo sapiens), P42336 [Q546K]; conditions: Compound concentration 1000.0 nM
[32] = biological target: Serine/threonine-protein kinase PLK1 (Homo sapiens) (UniProt P53350); conditions: Compound concentration 1000.0 nM
[33] = test system: Proto-oncogene tyrosine-protein kinase receptor Ret (Homo sapiens), P07949 [V804M]; conditions: Compound concentration 1000.0 nM
[34] = biological target: Serine/threonine-protein kinase RIO2 (Homo sapiens) (UniProt Q9BVS4); conditions: Compound concentration 1000.0 nM
[35] = biological target: Ribosomal protein S6 kinase alpha-4 (Homo sapiens) (UniProt O75676); conditions: Compound concentration 1000.0 nM
[36] = biological target: Serine/threonine-protein kinase 16 (Homo sapiens) (UniProt O75716); conditions: Compound concentration 1000.0 nM
[37] = biological target: Serine/threonine-protein kinase 35 (Homo sapiens) (UniProt Q8TDR2); conditions: Compound concentration 1000.0 nM
[38] = biological target: TGF-beta receptor type-1 (Homo sapiens) (UniProt P36897); conditions: Compound concentration 1000.0 nM
[39] = biological target: Testis-specific serine/threonine-protein kinase 3 (Homo sapiens) (UniProt Q96PN8); conditions: Compound concentration 1000.0 nM
[40] = biological target: Serine/threonine-protein kinase ULK3 (Homo sapiens) (UniProt Q6PHR2); conditions: Compound concentration 1000.0 nM
[41] = biological target: Phosphatidylinositol 3-kinase catalytic subunit type 3 (Homo sapiens) (UniProt Q8NEB9); conditions: Compound concentration 1000.0 nM
[42] = biological target: Serine/threonine-protein kinase WNK4 (Homo sapiens) (UniProt Q96J92); conditions: Compound concentration 1000.0 nM
[43] = biological target: GABA-A receptor; anion channel (Rattus norvegicus) (UniProt O09028+P15431+P18506+P18508+P19969+P20236+P23574+P23576+P28471+P28473+P30191+P62813+P63079+P63138+Q91ZM7+Q9ES14); conditions: Compound concentration 10.0 uM
[44] = biological target: Sigma intracellular receptor 2 (Homo sapiens, UniProt Q5BJF2); conditions: Compound concentration 10.0 uM
Chain of Sigma intracellular receptor 2 (Q5BJF2 whole entry): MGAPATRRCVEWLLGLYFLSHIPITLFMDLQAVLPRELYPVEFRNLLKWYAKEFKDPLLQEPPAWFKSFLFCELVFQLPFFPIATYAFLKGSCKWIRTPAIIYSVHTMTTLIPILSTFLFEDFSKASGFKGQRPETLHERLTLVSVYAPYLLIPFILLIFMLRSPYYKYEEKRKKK

Chain of Phosphatidylinositol 4,5-bisphosphate 3-kinase catalytic subunit alpha isoform (Homo sapiens), P42336 [Q546K] (P42336 whole entry Q546K, canonical isoform): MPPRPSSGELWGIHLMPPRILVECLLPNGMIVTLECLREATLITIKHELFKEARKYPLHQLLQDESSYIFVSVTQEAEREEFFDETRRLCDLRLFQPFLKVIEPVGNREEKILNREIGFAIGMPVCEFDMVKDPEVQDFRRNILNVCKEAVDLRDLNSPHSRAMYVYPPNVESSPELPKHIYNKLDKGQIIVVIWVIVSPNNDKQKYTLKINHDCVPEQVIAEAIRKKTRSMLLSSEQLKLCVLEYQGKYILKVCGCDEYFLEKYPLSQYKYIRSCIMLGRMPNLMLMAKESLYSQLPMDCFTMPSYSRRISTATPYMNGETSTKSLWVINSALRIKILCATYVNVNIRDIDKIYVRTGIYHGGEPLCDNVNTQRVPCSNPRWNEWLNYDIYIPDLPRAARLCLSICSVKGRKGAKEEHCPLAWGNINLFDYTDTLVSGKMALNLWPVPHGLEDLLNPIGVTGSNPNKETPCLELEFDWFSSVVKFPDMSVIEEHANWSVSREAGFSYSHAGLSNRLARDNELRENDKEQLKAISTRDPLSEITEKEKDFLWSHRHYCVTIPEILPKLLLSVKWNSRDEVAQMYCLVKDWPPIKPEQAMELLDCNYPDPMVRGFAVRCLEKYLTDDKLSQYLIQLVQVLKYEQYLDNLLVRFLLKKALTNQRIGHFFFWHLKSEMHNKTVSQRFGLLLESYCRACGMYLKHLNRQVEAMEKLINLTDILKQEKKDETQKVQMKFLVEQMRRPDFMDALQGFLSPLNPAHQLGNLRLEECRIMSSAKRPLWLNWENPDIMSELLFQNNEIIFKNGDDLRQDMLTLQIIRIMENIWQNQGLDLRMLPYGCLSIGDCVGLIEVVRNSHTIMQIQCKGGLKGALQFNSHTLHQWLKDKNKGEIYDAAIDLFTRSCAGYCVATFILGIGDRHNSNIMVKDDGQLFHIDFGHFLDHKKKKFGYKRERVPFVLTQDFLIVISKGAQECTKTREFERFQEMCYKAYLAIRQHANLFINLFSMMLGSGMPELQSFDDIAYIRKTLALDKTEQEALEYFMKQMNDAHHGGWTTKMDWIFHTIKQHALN
Chain of Focal adhesion kinase 1 (Homo sapiens) (Q05397 2-1052 limits assumed): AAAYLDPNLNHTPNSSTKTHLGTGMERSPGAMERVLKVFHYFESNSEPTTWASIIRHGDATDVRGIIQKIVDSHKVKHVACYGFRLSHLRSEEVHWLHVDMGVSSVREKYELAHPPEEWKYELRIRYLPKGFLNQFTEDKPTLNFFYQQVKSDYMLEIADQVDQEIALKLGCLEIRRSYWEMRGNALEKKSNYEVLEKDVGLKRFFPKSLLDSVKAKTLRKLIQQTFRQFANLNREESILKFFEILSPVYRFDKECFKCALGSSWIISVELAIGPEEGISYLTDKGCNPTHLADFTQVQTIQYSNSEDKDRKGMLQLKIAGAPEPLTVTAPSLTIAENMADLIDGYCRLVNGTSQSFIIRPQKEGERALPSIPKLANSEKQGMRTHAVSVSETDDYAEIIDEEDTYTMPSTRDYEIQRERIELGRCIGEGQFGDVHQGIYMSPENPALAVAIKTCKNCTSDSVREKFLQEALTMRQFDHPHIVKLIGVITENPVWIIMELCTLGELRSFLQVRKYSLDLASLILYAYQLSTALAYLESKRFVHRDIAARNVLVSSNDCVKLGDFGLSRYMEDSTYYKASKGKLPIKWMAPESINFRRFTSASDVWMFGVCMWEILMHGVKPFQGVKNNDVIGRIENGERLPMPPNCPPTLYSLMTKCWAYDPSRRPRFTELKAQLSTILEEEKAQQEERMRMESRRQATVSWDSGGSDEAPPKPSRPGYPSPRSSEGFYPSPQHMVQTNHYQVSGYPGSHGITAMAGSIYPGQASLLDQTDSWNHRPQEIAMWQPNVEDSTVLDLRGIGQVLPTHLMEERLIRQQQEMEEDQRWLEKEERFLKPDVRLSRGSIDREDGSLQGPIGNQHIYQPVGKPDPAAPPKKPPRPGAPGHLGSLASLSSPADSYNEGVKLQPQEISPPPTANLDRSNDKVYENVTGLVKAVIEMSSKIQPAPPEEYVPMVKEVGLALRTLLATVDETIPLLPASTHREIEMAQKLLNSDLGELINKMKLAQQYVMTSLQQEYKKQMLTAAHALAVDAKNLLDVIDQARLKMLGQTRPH
Chain of Phosphatidylinositol 3-kinase C2 domain-containing subunit gamma (Homo sapiens) (O75747 whole entry, the tested form may be a part, canonical isoform): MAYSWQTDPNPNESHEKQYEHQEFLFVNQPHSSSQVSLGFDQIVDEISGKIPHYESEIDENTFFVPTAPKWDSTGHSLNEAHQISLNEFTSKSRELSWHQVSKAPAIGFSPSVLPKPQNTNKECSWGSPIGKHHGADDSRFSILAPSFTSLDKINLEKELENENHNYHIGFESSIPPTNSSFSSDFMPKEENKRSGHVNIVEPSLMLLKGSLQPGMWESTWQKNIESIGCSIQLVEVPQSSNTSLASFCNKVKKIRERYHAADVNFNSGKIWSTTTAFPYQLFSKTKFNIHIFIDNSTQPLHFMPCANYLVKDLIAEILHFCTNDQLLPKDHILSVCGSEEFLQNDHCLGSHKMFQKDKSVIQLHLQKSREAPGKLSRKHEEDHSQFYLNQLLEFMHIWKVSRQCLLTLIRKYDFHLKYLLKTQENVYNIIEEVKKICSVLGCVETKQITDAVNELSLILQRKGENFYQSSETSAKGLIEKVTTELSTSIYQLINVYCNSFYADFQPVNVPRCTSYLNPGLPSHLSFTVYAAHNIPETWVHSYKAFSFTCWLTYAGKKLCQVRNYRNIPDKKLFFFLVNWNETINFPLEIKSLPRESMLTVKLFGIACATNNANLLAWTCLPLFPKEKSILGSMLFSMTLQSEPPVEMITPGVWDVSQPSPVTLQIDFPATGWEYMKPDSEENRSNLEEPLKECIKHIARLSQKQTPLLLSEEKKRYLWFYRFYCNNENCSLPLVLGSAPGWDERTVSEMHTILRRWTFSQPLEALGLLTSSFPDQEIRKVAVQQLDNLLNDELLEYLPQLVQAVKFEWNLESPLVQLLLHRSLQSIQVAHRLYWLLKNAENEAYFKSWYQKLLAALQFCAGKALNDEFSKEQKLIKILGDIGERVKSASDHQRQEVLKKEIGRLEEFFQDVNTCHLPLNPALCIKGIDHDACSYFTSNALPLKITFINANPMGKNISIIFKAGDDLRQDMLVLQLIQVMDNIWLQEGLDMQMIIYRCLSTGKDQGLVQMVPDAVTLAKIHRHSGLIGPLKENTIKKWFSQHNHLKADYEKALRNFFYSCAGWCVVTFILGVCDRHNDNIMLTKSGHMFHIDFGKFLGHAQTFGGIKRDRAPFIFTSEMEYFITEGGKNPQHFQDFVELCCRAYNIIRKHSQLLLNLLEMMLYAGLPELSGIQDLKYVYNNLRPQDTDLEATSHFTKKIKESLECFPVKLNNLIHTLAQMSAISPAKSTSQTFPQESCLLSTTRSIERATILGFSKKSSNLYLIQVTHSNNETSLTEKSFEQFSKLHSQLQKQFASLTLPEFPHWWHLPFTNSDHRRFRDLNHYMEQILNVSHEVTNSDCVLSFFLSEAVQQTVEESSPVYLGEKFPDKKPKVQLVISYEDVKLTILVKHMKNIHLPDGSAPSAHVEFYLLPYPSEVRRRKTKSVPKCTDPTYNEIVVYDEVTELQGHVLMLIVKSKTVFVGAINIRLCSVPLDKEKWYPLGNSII
Chain of Cyclin-dependent kinase 11B (Homo sapiens) (P21127 whole entry): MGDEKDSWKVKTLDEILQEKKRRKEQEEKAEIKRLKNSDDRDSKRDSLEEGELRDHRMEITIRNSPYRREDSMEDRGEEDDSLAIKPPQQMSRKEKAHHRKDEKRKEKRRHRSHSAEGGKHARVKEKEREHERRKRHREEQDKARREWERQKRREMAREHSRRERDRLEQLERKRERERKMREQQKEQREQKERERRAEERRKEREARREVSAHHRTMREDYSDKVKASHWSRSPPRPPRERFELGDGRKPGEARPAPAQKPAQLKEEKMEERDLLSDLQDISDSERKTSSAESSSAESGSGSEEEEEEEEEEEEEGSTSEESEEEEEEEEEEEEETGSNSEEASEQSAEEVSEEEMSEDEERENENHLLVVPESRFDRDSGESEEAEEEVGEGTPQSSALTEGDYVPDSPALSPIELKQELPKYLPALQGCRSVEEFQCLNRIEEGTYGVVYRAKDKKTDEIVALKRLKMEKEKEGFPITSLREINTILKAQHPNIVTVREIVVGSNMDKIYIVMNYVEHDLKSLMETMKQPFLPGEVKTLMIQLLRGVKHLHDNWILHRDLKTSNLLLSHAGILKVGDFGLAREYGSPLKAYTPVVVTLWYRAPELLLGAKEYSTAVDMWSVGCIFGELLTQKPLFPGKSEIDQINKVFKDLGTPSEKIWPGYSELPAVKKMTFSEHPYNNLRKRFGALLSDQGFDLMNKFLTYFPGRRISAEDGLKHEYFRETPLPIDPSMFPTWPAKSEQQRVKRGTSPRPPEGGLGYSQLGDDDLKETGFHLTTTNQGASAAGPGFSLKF
Chain of TGF-beta receptor type-1 (Homo sapiens) (P36897 whole entry): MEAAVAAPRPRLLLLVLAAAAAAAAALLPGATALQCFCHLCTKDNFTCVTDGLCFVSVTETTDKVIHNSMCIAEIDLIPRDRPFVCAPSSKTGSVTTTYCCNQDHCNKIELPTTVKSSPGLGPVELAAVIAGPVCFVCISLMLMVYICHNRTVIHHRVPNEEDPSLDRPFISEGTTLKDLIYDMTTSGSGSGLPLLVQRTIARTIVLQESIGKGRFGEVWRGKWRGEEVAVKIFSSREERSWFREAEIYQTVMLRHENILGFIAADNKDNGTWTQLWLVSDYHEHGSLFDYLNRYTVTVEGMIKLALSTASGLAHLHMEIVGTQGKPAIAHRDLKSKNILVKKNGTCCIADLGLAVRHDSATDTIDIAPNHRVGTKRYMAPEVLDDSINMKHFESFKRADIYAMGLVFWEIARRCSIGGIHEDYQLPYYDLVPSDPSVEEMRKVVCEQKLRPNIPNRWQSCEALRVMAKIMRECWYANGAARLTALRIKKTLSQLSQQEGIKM

SMILES: NS(=O)(=O)c1cc(NC(=O)Cc2ccccc2)ccc1Oc1cccc(Cl)c1 [BAY-1797]
- residual activity [1]: 76%
- residual activity [2]: 100%
- residual activity [3]: 62%
- residual activity [4]: 96%
- residual activity [5]: 91%
- residual activity [6]: 100%
- residual activity [7]: 71%
- residual activity [8]: 95%
- residual activity [9]: 64%
- residual activity [10]: 89%
- residual activity [11]: 74%
- residual activity [12]: 100%
- residual activity [13]: 92%
- residual activity [14]: 100%
- residual activity [15]: 96%
- residual activity [16]: 98%
- residual activity [17]: 97%
- residual activity [18]: 80%
- residual activity [19]: 100%
- residual activity [20]: 100%
- residual activity [21]: 73%
- residual activity [22]: 76%
- residual activity [23]: 51%
- residual activity [24]: 100%
- residual activity [25]: 99%
- residual activity [26]: 97%
- residual activity [27]: 100%
- residual activity [28]: 100%
- residual activity [29]: 72%
- residual activity [30]: 87%
- residual activity [31]: 92%
- residual activity [32]: 73%
- residual activity [33]: 100%
- residual activity [34]: 100%
- residual activity [35]: 100%
- residual activity [36]: 95%
- residual activity [37]: 99%
- residual activity [38]: 100%
- residual activity [39]: 87%
- residual activity [40]: 74%
- residual activity [41]: 100%
- residual activity [42]: 0%
- inhibition [43]: 0.73%
- inhibition [44]: 59.5%

SMILES: NS(=O)(=O)c1cc(NC(=O)C2(c3ccccc3Cl)CC2)ccc1Oc1cccc(Cl)c1 [BAY-207]
- residual activity [1]: 69%
- residual activity [2]: 100%
- residual activity [3]: 85%
- residual activity [4]: 71%
- residual activity [5]: 87%
- residual activity [6]: 100%
- residual activity [7]: 83%
- residual activity [8]: 73%
- residual activity [9]: 82%
- residual activity [10]: 90%
- residual activity [11]: 100%
- residual activity [12]: 100%
- residual activity [13]: 82%
- residual activity [14]: 84%
- residual activity [15]: 87%
- residual activity [16]: 99%
- residual activity [17]: 100%
- residual activity [18]: 91%
- residual activity [19]: 100%
- residual activity [20]: 100%
- residual activity [21]: 79%
- residual activity [22]: 86%
- residual activity [23]: 100%
- residual activity [24]: 100%
- residual activity [25]: 83%
- residual activity [26]: 88%
- residual activity [27]: 68%
- residual activity [28]: 100%
- residual activity [29]: 100%
- residual activity [30]: 80%
- residual activity [31]: 84%
- residual activity [32]: 92%
- residual activity [33]: 100%
- residual activity [34]: 89%
- residual activity [35]: 70%
- residual activity [36]: 100%
- residual activity [37]: 94%
- residual activity [38]: 82%
- residual activity [39]: 100%
- residual activity [40]: 83%
- residual activity [41]: 89%
- residual activity [42]: 81%
- inhibition [43]: 3.19%
- inhibition [44]: 82%
